Experimental data published in paper PMC5933747 (PLoS ONE, 2018).

Assays:
Format in all cases: cell-based
human NaV1.7 = human NaV1.7 (Homo sapiens, UniProt Q15858); experiment: PatchXpress (PX) automated electrophysiology, human NaV1.7 in HEK293 cells; conditions: PX platform, voltage protocol with 20% of channels inactivated, at least ten cells, two to three data points per concentration
human NaV1.4 = human NaV1.4 (Homo sapiens, UniProt P35499); experiment: PatchXpress (PX) automated electrophysiology, human NaV1.4
human NaV1.4, sequence (P35499 whole entry): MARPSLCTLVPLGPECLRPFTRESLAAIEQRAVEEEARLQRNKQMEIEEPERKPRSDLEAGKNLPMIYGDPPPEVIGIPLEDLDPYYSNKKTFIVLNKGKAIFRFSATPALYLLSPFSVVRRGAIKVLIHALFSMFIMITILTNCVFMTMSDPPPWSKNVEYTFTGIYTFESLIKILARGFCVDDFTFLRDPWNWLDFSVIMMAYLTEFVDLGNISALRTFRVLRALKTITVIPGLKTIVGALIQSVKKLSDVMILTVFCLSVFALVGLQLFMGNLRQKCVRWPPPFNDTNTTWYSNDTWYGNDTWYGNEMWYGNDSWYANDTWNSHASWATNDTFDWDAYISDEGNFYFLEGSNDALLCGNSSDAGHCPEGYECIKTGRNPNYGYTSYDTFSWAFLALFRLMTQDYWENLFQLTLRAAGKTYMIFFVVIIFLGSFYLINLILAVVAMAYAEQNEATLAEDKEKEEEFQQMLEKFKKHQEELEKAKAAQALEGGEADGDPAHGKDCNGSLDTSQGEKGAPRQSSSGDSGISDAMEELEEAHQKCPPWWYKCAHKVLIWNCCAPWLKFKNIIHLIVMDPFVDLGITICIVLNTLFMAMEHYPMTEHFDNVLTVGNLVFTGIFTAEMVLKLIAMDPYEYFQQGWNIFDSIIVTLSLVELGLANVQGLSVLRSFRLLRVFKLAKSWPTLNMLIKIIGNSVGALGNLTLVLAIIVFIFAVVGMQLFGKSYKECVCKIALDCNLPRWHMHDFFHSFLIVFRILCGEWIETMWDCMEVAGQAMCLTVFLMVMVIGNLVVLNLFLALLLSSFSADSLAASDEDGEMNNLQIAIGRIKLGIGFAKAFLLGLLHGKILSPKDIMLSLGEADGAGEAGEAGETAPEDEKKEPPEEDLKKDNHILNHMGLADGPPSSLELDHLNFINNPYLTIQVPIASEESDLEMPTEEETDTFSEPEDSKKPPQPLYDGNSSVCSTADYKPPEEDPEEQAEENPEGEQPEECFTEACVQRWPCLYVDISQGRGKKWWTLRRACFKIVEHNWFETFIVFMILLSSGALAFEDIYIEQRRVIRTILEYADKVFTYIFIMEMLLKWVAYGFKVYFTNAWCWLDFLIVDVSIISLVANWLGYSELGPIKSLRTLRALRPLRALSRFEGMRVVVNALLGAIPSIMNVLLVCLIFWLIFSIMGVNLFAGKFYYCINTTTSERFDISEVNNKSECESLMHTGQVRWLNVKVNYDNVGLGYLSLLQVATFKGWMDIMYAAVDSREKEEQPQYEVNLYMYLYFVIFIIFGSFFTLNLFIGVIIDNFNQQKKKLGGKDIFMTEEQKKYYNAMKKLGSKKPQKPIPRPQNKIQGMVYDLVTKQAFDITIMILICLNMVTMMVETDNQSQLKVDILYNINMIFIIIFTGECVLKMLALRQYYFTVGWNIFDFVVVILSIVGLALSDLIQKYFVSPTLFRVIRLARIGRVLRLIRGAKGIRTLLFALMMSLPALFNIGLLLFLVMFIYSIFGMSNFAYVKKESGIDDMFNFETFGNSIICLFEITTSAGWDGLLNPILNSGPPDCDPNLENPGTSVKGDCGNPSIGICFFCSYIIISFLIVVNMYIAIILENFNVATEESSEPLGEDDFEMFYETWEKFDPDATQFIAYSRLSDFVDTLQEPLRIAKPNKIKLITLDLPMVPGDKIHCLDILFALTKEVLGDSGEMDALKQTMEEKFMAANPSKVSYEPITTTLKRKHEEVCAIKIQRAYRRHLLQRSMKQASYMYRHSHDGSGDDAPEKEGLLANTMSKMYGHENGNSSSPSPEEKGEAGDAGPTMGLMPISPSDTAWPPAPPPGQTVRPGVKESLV
Procedure: Human NaV (hNaV) stably transfected cell lines in HEK293 or CHO backgrounds and cell culture methods were as previously described. hNaV1.1-hNaV1.7 cells were obtained from Eurofins Pharma Discovery Services (St. Charles, MO), and hNaV1.8 cells were generated in house. Whole cell patch clamp, PatchXpress, and IWQ electrophysiology voltage protocols as well as DRG neuron isolation were carried out as previously described. NaV1.7-NaV1.5 chimeras were generated and evaluated in BacMam transduced U2-OS cells on the IWQ platform as previously described.

human NaV1.5 = human NaV1.5 (Homo sapiens, UniProt Q14524); experiment: PatchXpress (PX) automated electrophysiology, human NaV1.5; conditions: human; PX platform; at least ten cells, two to three data points per concentration

human NaV1.7, sequence (Q15858 whole entry): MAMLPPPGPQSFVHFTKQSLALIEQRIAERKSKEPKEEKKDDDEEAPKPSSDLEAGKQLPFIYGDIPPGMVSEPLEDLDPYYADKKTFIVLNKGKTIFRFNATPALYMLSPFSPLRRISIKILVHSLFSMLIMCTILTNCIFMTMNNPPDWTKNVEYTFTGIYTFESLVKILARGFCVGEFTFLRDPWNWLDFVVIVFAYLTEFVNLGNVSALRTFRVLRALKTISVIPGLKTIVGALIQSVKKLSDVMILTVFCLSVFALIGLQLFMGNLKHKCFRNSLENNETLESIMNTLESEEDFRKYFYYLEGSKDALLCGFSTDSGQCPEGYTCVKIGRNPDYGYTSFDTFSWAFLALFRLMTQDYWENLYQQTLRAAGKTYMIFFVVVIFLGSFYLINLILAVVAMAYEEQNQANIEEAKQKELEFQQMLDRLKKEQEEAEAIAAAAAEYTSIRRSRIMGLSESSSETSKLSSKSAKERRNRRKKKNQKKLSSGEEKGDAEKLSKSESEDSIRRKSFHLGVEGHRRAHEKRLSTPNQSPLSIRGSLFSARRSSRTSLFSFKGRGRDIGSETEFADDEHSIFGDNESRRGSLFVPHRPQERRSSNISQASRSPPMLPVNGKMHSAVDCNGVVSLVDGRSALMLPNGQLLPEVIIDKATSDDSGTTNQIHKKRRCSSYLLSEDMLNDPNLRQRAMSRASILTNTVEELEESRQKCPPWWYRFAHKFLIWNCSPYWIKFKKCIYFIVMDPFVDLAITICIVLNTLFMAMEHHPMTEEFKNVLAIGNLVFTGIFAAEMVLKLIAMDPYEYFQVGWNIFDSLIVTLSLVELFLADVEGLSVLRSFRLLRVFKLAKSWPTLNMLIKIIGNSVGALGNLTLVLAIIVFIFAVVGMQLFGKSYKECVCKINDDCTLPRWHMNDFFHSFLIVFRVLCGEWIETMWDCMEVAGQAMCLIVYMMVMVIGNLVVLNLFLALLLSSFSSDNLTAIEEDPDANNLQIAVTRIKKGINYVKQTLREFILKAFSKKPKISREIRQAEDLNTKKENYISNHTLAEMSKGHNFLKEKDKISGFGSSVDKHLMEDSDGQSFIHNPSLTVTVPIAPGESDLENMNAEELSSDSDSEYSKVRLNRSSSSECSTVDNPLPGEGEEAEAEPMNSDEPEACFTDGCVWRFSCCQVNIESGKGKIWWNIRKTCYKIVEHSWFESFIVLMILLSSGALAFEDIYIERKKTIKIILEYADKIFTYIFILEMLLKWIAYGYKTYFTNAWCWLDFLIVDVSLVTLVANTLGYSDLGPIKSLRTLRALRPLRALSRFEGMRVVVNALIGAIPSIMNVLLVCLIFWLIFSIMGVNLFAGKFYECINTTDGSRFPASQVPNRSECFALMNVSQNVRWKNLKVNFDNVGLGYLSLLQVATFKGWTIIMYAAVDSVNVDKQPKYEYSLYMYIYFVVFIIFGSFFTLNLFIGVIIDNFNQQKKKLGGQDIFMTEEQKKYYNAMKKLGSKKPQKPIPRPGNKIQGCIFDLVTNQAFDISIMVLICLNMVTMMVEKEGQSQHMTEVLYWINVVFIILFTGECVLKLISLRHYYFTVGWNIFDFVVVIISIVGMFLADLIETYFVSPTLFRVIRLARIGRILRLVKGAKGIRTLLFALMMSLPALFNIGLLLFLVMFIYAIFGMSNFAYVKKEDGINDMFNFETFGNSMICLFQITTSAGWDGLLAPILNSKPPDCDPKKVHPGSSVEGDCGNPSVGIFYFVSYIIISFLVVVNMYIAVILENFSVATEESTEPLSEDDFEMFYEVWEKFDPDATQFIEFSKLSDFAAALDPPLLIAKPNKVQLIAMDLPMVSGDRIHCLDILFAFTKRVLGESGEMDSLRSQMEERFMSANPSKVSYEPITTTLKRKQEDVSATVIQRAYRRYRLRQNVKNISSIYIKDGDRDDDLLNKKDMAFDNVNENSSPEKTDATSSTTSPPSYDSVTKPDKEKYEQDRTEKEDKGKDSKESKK

C#CC[C@H](N)C(=O)N[C@@H](Cc1ccc(O)cc1)C(=O)N[C@H]1CSSC[C@@H]2NC(=O)[C@@H]3CSSC[C@@H](C(=O)N[C@@H](CCCNC(=N)N)C(=O)N[C@@H](CCCCN)C(=O)N[C@H](C(=O)N[C@H](C(N)=O)[C@@H](C)CC)[C@@H](C)CC)NC(=O)[C@H](Cc4c[nH]c5ccccc45)NC(=O)[C@H](CC(C)C)NC(=O)[C@H](CCCCN)NC(=O)[C@H](CSSC[C@H](NC(=O)[C@H]([C@@H](C)O)NC(=O)[C@H](Cc4c[nH]c5ccccc45)NC(=O)[C@H](CCCC)NC(=O)[C@H](Cc4c[nH]c5ccccc45)NC(=O)[C@H](CCCCN)NC(=O)[C@H](CCC(N)=O)NC1=O)C(=O)N[C@@H](CC(=O)O)C(=O)N[C@@H](CO)C(=O)N[C@@H](CCCCN)C(=O)N[C@@H](CCCNC(=N)N)C(=O)N[C@@H](C)C(=O)N3)NC(=O)[C@H](CCCNC(=N)N)NC(=O)[C@H](CC(C)C)NC(=O)CNC(=O)[C@H](CCC(=O)O)NC2=O [Peptide 3, Pra-[Nle6]JzTx-V(1–29)]
IC50 (human NaV1.7): 1.2 nM
selectivity for NaV1.7 over NaV1.4 (human NaV1.4; PX platform IC50 ratio): 5 fold
IC50 (human NaV1.4; PX platform, at least ten cells, two to three data points per concentration): 6.2 nM
IC50 (human NaV1.5): 1090 nM
